Laboratory results from PubChem BioAssay AID256 (DTP/NCI, 2004).
Inconclusive results and toxic doses are left out. How the source made its calls: active means survival T/C of 150% or more; inactive means T/C below 125% in these data.

Test system: CD2F1 mice, L1210 leukemia ip, survival T/C
Experiment: NCI In Vivo Anticancer Drug Screen. Data for tumor model L1210 Leukemia (intraperitoneal) in CD2F1 (CDF1) mice
Details: higher = longer survival
Summary of the method: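 Read-out first: treated-group measurement over vehicle-control measurement, expressed as a ratio. Animals bore a transplanted tumor line and were dosed with compound or vehicle.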

[1] = endpoint: mean survival time, dose: 100.0 mg/kg/injection, schedule: Q01DX009 (ip), vehicle: saline with Tween-80
[2] = endpoint: mean survival time, dose: 200.0 mg/kg/injection, schedule: Q01DX009 (ip), vehicle: saline with Tween-80
[3] = endpoint: mean survival time, dose: 400.0 mg/kg/injection, schedule: Q01DX009 (ip), vehicle: saline with Tween-80
[4] = endpoint: mean survival time, dose: 100.0 mg/kg/injection, schedule: Q04DX003 (ip), vehicle: saline with Tween-80
[5] = endpoint: mean survival time, dose: 200.0 mg/kg/injection, schedule: Q04DX003 (ip), vehicle: saline with Tween-80
[6] = endpoint: mean survival time, dose: 400.0 mg/kg/injection, schedule: Q04DX003 (ip), vehicle: saline with Tween-80

Measured: T/C

CC(C)(C)SC1C(O)C(CO)OC1n1ccc(N)nc1=O (stereo not drawn)
inactive: endpoint: median survival time, dose: 12.5 mg/kg/injection, schedule: Q01DX005 (ip), vehicle: saline 103 % of control | endpoint: median survival time, dose: 25.0 mg/kg/injection, schedule: Q01DX005 (ip), vehicle: saline 96 % of control | endpoint: median survival time, dose: 50.0 mg/kg/injection, schedule: Q01DX005 (ip), vehicle: saline 103 % of control | endpoint: median survival time, dose: 100.0 mg/kg/injection, schedule: Q01DX005 (ip), vehicle: saline 108 % of control | endpoint: median survival time, dose: 200.0 mg/kg/injection, schedule: Q01DX005 (ip), vehicle: saline 103 % of control

C1=CSCCC1
inactive: endpoint: mean survival time, dose: 25.0 mg/kg/injection, schedule: Q04DX002 (ip), vehicle: saline + alcohol 102 % of control | endpoint: mean survival time, dose: 50.0 mg/kg/injection, schedule: Q04DX002 (ip), vehicle: saline + alcohol 94 % of control | endpoint: mean survival time, dose: 100.0 mg/kg/injection, schedule: Q04DX002 (ip), vehicle: saline + alcohol 90 % of control

Cc1c(C)c(NC(=O)/C=C/C(=O)O)c(C)c(C)c1NC(=O)/C=C\C(=O)O
inactive: endpoint: mean survival time, dose: 100.0 mg/kg/injection, schedule: Q01DX001 (ip), vehicle: Klucel (hydroxypropylcellulose) (HPC) 101 % of control | endpoint: mean survival time, dose: 200.0 mg/kg/injection, schedule: Q01DX001 (ip), vehicle: Klucel (hydroxypropylcellulose) (HPC) 96 % of control | endpoint: mean survival time, dose: 400.0 mg/kg/injection, schedule: Q01DX001 (ip), vehicle: Klucel (hydroxypropylcellulose) (HPC) 98 % of control

CC12CCC(=O)C=C1CCC1C2CCC2(C)C1CCC2(O)C(=O)Cn1c(=O)cc[nH]c1=O (stereo not drawn)
inactive: endpoint: mean survival time, dose: 12.5 mg/kg/injection, schedule: Q04DX003 (ip), vehicle: Klucel (hydroxypropylcellulose) (HPC) 100 % of control | endpoint: mean survival time, dose: 25.0 mg/kg/injection, schedule: Q04DX003 (ip), vehicle: Klucel (hydroxypropylcellulose) (HPC) 93 % of control | endpoint: mean survival time, dose: 50.0 mg/kg/injection, schedule: Q04DX003 (ip), vehicle: Klucel (hydroxypropylcellulose) (HPC) 94 % of control | endpoint: mean survival time, dose: 100.0 mg/kg/injection, schedule: Q04DX003 (ip), vehicle: Klucel (hydroxypropylcellulose) (HPC) 93 % of control | endpoint: mean survival time, dose: 200.0 mg/kg/injection, schedule: Q04DX003 (ip), vehicle: Klucel (hydroxypropylcellulose) (HPC) 93 % of control

Cc1ccc([N+](=O)[O-])cc1NC(=O)NNC(=O)CNC(=O)Nc1cccc([N+](=O)[O-])c1
inactive: [1] 88 % of control | [2] 86 % of control | [3] 104 % of control

Cc1cc2nc(-c3ccccc3)c(-c3ccccc3)nc2cc1C
inactive: [1] 92 % of control | [4] 94 % of control | [2] 92 % of control | [5] 91 % of control | [3] 93 % of control | [6] 95 % of control

O=C(O)C(CCc1ccccc1)N1CCOCC1 (stereo not drawn)
inactive: endpoint: mean survival time, dose: 100.0 mg/kg/injection, schedule: Q04DX003 (ip), vehicle: saline 98 % of control | endpoint: mean survival time, dose: 200.0 mg/kg/injection, schedule: Q04DX003 (ip), vehicle: saline 98 % of control | endpoint: mean survival time, dose: 400.0 mg/kg/injection, schedule: Q04DX003 (ip), vehicle: saline 101 % of control

COc1cc(CC#N)ccc1OCc1ccccc1
inactive: endpoint: mean survival time, dose: 12.5 mg/kg/injection, schedule: Q01DX009 (ip), vehicle: other 102 % of control | endpoint: mean survival time, dose: 25.0 mg/kg/injection, schedule: Q01DX009 (ip), vehicle: other 101 % of control | endpoint: mean survival time, dose: 25.0 mg/kg/injection, schedule: Q04DX003 (ip), vehicle: other 102 % of control | endpoint: mean survival time, dose: 50.0 mg/kg/injection, schedule: Q01DX009 (ip), vehicle: other 100 % of control | endpoint: mean survival time, dose: 50.0 mg/kg/injection, schedule: Q04DX003 (ip), vehicle: other 96 % of control | endpoint: mean survival time, dose: 100.0 mg/kg/injection, schedule: Q04DX003 (ip), vehicle: other 103 % of control

Cc1ccc(S(=O)(=O)Nc2ccccc2)c(CC(O)(c2ccccc2)c2ccccc2)c1
inactive: [4] 88 % of control | [5] 88 % of control

Cc1cccc(Cl)c1NC(=O)CS
inactive: [4] 98 % of control | [5] 98 % of control | [6] 98 % of control

N#CN=[N+]([O-])c1ccc(C(=O)O)cc1
inactive: endpoint: mean survival time, dose: 1.87 mg/kg/injection, schedule: Q01DX009 (ip), vehicle: Klucel (hydroxypropylcellulose) (HPC) 106 % of control | endpoint: mean survival time, dose: 3.75 mg/kg/injection, schedule: Q01DX009 (ip), vehicle: Klucel (hydroxypropylcellulose) (HPC) 95 % of control | endpoint: mean survival time, dose: 7.5 mg/kg/injection, schedule: Q01DX009 (ip), vehicle: Klucel (hydroxypropylcellulose) (HPC) 95 % of control | endpoint: mean survival time, dose: 15.0 mg/kg/injection, schedule: Q01DX009 (ip), vehicle: Klucel (hydroxypropylcellulose) (HPC) 96 % of control | endpoint: mean survival time, dose: 30.0 mg/kg/injection, schedule: Q01DX009 (ip), vehicle: Klucel (hydroxypropylcellulose) (HPC) 98 % of control | endpoint: mean survival time, dose: 60.0 mg/kg/injection, schedule: Q01DX009 (ip), vehicle: Klucel (hydroxypropylcellulose) (HPC) 106 % of control | endpoint: median survival time, dose: 1.87 mg/kg/injection, schedule: Q01DX009 (ip), vehicle: Klucel (hydroxypropylcellulose) (HPC) 101 % of control | endpoint: median survival time, dose: 3.75 mg/kg/injection, schedule: Q01DX009 (ip), vehicle: Klucel (hydroxypropylcellulose) (HPC) 95 % of control | endpoint: median survival time, dose: 7.5 mg/kg/injection, schedule: Q01DX009 (ip), vehicle: Klucel (hydroxypropylcellulose) (HPC) 95 % of control | endpoint: median survival time, dose: 15.0 mg/kg/injection, schedule: Q01DX009 (ip), vehicle: Klucel (hydroxypropylcellulose) (HPC) 109 % of control | endpoint: median survival time, dose: 30.0 mg/kg/injection, schedule: Q01DX009 (ip), vehicle: Klucel (hydroxypropylcellulose) (HPC) 93 % of control

CCNC(=S)NNc1ccccc1
inactive: endpoint: mean survival time, dose: 50.0 mg/kg/injection, schedule: Q01DX009 (ip), vehicle: saline with Tween-80 103 % of control | [1] 100 % of control | [2] 88 % of control

CCOC(=O)NC1=C(N2CC2)C(=O)C(NC(=O)OCC)=C(N2CC2)C1=O
inactive: endpoint: mean survival time, dose: 1.25 mg/kg/injection, schedule: Q01DX009 (oral), vehicle: other 87 % of control | endpoint: mean survival time, dose: 1.25 mg/kg/injection, schedule: Q01DX009 (oral), vehicle: saline 98 % of control | endpoint: mean survival time, dose: 2.5 mg/kg/injection, schedule: Q01DX009 (oral), vehicle: other 97 % of control | endpoint: mean survival time, dose: 2.5 mg/kg/injection, schedule: Q01DX009 (oral), vehicle: saline 94 % of control | endpoint: mean survival time, dose: 4.0 mg/kg/injection, schedule: Q01DX009 (sc), vehicle: other 93 % of control | endpoint: mean survival time, dose: 10.0 mg/kg/injection, schedule: Q01DX009 (oral), vehicle: other 95 % of control | endpoint: mean survival time, dose: 16.0 mg/kg/injection, schedule: Q04DX003 (ip), vehicle: other 90 % of control | endpoint: mean survival time, dose: 20.0 mg/kg/injection, schedule: Q01DX009 (oral), vehicle: other 87 % of control | endpoint: median survival time, dose: 0.25 mg/kg/injection, schedule: Q01DX009 (ip), vehicle: saline with Tween-80 97 % of control | endpoint: median survival time, dose: 0.5 mg/kg/injection, schedule: Q01DX009 (ip), vehicle: saline with Tween-80 110 % of control | endpoint: median survival time, dose: 1.0 mg/kg/injection, schedule: Q08DX002 (ip), vehicle: saline with Tween-80 110 % of control | endpoint: median survival time, dose: 4.0 mg/kg/injection, schedule: Q01DX009 (ip), vehicle: saline with Tween-80 90 % of control

O=Nc1ccc(NO)c2ccccc12
inactive: endpoint: mean survival time, dose: 50.0 mg/kg/injection, schedule: Q01DX009 (ip), vehicle: saline 98 % of control | endpoint: mean survival time, dose: 100.0 mg/kg/injection, schedule: Q01DX009 (ip), vehicle: saline 102 % of control | endpoint: mean survival time, dose: 200.0 mg/kg/injection, schedule: Q01DX009 (ip), vehicle: saline 102 % of control

CCc1c(-c2ccccc2)c(CN2CCCCC2)c2ccccn12
inactive: endpoint: mean survival time, dose: 75.0 mg/kg/injection, schedule: Q01DX001 (ip), vehicle: saline 103 % of control | endpoint: mean survival time, dose: 150.0 mg/kg/injection, schedule: Q01DX001 (ip), vehicle: saline 103 % of control | endpoint: mean survival time, dose: 300.0 mg/kg/injection, schedule: Q01DX001 (ip), vehicle: saline 113 % of control

CC(NC1CCCCC1)c1ccc(O)cc1O (stereo not drawn)
inactive: endpoint: mean survival time, dose: 75.0 mg/kg/injection, schedule: Q01DX001 (ip), vehicle: other 93 % of control | endpoint: mean survival time, dose: 150.0 mg/kg/injection, schedule: Q01DX001 (ip), vehicle: other 87 % of control
